The structures appear in SMILES notation. A value given as a limit tells only on which side of the number the result lay.

Our source for the IC50 values is patent US20250171417A1, “HETEROCYCLIC DERIVATIVE, AND COMPOSITION AND PHARMACEUTICAL USE THEREOF” (Xizang Haisco Pharmaceutical Co., Ltd., priority 2021, published 2025).

For the first test, the system named is Prostate cancer cells 22RV1. Put plainly: Experiment on inhibiting 22RV1 cell proliferation (CellTiter-Glo, 7 days). It is filed as cell-based. The following applies: Homo sapiens, 168 h, 22RV1 cells, 7 days incubation, cells with nM printed beside the value, read-out: IC50 values for inhibition of 22RVI cells. The procedure:
Prostate cancer cells 22RV1 were purchased from ATCC, the cell medium was RPMI 1640+10% FBS, and the cells were cultured in an incubator at 37° C. under 5% CO2. On day 1, the cells in the exponential growth phase were collected. With a 1% css-FBS phenol red-free medium, the cell suspension was adjusted to a corresponding concentration, plated at 2000 cells/well and incubated overnight. On day 2, compounds at different concentrations were added, and the plate was placed in the incubator and incubated for further 7 days. After the incubation was completed, according to operation instructions for a CellTiter-Glo kit (Promega, G7573), 50 μL of CellTiter-Glo reagents, which were already pre-melted and equilibrated to room temperature, were added to each well, and the mixtures were uniformly mixed for 2 min using a microplate shaker. The plate was placed at room temperature for 10 min. and then […] signal values were measured using a microplate reader (PHERAstar FSX). The results were processed according to formula (I), the inhibition rate of the compound at different concentrations was calculated, and the IC50 value of the compound with an inhibition rate of 50% was calculated using origin9.2 software with DoseResp function, wherein RLUcompound was the readout of the treated group, and RLUcontrol was the average value of the DMSO vehicle control group.
By IC50 is commonly meant the concentration needed to halve the response being measured. On to `Cc1nn(C(C)(C)C(=O)Nc2ccc(C#N)cc2C2CC2)cc1C#CC1CN(c2ccc3c(c2)C(=O)N(C2CCC(=O)NC2=O)C3=O)C1` (stereo not shown) [Compound 184, N-(4-cyano-2-cyclopropylphenyl)-2-(4-((1-(2-(2,6-dioxopiperidin-3-yl)-1,3-dioxoisoindolin-5-yl)azetidin-3-yl)ethynyl)-3-methyl-1H-pyrazol-1-yl)-2-methylpropanamide], for which the IC50 is < 100 nM.
On to `CC(C)(C(=O)Nc1ccc(C(F)(F)F)cc1-n1cccn1)n1cc(C#CC2CN(c3ccc4c(c3)C(=O)N(C3CCC(=O)NC3=O)C4=O)C2)cn1` (stereo not shown) [Compound 51, N-(2-(1H-pyrazol-1-yl)-4-(trifluoromethyl)phenyl)-2-(4-((1-(2-(2,6-dioxopiperidin-3-yl)-1,3-dioxoisoindolin-5-yl)azetidin-3-yl)ethynyl)-1H-pyrazol-1-yl)-2-methylpropanamide], for which the IC50 is < 50 nM.
Still for that read-out and setting: the figure for `C#Cc1cc(C#N)ccc1NC(=O)C(C)(C)n1cc(C#CC2CN(c3ccc4c(c3)C(=O)N(C3CCC(=O)NC3=O)C4=O)C2)cn1` (stereo not shown) [Compound 189, N-(4-cyano-2-ethynylphenyl)-2-(4-((1-(2-(2,6-dioxopiperidin-3-yl)-1,3-dioxoisoindolin-5-yl)azetidin-3-yl)ethynyl)-1H-pyrazol-1-yl)-2-methylpropanamide] is < 100 nM; for `[2H]C([2H])([2H])C(C(=O)Nc1ccc(C(F)(F)F)cc1C1CC1)(n1cc(C#CC2CN(c3ccc4c(c3)C(=O)N(C3CCC(=O)NC3=O)C4=O)C2)cn1)C([2H])([2H])[2H]` (stereo not shown) [Compound 187, N-(2-cyclopropyl-4-(trifluoromethyl)phenyl)-2-(4-((1-(2-(2,6-dioxopiperidin-3-yl)-1,3-dioxoisoindolin-5-yl)azetidin-3-yl)ethynyl)-1H-pyrazol-1-yl)-2,2-(dimethyl-d6) acetamide] it is < 100 nM.
The same measure, in the same setting: with `CC(C(=O)Nc1ccc(C#N)c(C(F)(F)F)c1)n1cc(C#CC2CN(c3ccc4c(c3)C(=O)N(C3CCC(=O)NC3=O)C4=O)C2)cn1` (stereo not shown) [Compound 77, N-(4-cyano-3-(trifluoromethyl)phenyl)-2-(4-((1-(2-(2,6-dioxopiperidin-3-yl)-1,3-dioxoisoindolin-5-yl)azetidin-3-yl)ethynyl)-1H-pyrazol-1-yl) propanamide] the figure was < 50 nM.
Same read-out and setting: the figure for `CC#Cc1cc(C(F)(F)F)ccc1NC(=O)C(C)(C)n1nc(C)c(C#CC2CN(c3ccc4c(c3)C(=O)N(C3CCC(=O)NC3=O)C4=O)C2)c1C` (stereo not shown) [Compound 192, 2-(4-((1-(2-(2,6-dioxopiperidin-3-yl)-1,3-dioxoisoindolin-5-yl)azetidin-3-yl)ethynyl)-3,5-dimethyl-1H-pyrazol-1-yl)-2-methyl-N-(2-(prop-1-yn-1-yl)-4-(trifluoromethyl)phenyl) propanamide] is < 100 nM; for `CC(C)(C(=O)Nc1ccc(C(F)(F)F)cc1C=C(F)F)n1cc(C#CC2CN(c3ccc4c(c3)C(=O)N(C3CCC(=O)NC3=O)C4=O)C2)cn1` (stereo not shown) [Compound 190, N-(2-(2,2-difluorovinyl)-4-(trifluoromethyl)phenyl)-2-(4-((1-(2-(2,6-dioxopiperidin-3-yl)-1,3-dioxoisoindolin-5-yl)azetidin-3-yl)ethynyl)-1H-pyrazol-1-yl)-2-methylpropanamide] it is < 100 nM.
As for `N#Cc1ccc(NC(=O)C2(n3cc(C#CC4CN(c5ccc6c(c5)C(=O)N(C5CCC(=O)NC5=O)C6=O)C4)cn3)CCCC2)cc1C(F)(F)F` (stereo not shown) [Compound 48, N-(4-cyano-3-(trifluoromethyl)phenyl)-1-(4-((1-(2-(2,6-dioxopiperidin-3-yl)-1,3-dioxoisoindolin-5-yl)azetidin-3-yl)ethynyl)-1H-pyrazol-1-yl)cyclopentane-1-carboxamide], the half-maximal inhibitory concentration (IC50) was < 100 nM.
Still for that read-out and setting: with `[2H]C([2H])([2H])C(C(=O)Nc1ccc(C(F)(F)F)cc1C#CC)(n1cc(C#CC2CN(c3ccc4c(c3)C(=O)N(C3CCC(=O)NC3=O)C4=O)C2)cn1)C([2H])([2H])[2H]` (stereo not shown) [Compound 175, 2-(4-((1-(2-(2,6-dioxopiperidin-3-yl)-1,3-dioxoisoindolin-5-yl)azetidin-3-yl)ethynyl)-1H-pyrazol-1-yl)-2-(methyl-d3)—N-(2-(prop-1-yn-1-yl)-4-(trifluoromethyl)phenyl) propanamide-d3] the figure was < 100 nM; with `Cc1cc(C(F)(F)F)ccc1NC(=O)C(C)(C)n1cc(C#CC2CN(c3ccc4c(c3)C(=O)N(C3CCC(=O)NC3=O)C4=O)C2)cn1` (stereo not shown) [Compound 59], < 50 nM.
As for `O=C1CCC(N2C(=O)c3ccc(N4CC(C#Cc5cnn(C6(C(=O)Nc7ccc(C(F)(F)F)cc7Cl)CCCC6)c5)C4)cc3C2=O)C(=O)N1` (stereo not shown) [Compound 69, N-(2-chloro-4-(trifluoromethyl)phenyl)-1-(4-((1-(2-(2,6-dioxopiperidin-3-yl)-1,3-dioxoisoindolin-S-yl)azetidin-3-yl)ethynyl)-1H-pyrazol-1-yl)cyclopentane-1-carboxamide], the IC50 was < 50 nM.
Still for that read-out and setting: the figure for `CC#Cc1cc(C(F)(F)F)ccc1NC(=O)C(C)(C)n1cc(C#CC2CN(c3ccc4c(c3)C(=O)N(C3CCC(=O)NC3=O)C4=O)C2)c(C#N)n1` (stereo not shown) [Compound 202, 2-(3-cyano-4-((1-(2-(2,6-dioxopiperidin-3-yl)-1,3-dioxoisoindolin-5-yl)azetidin-3-yl)ethynyl)-1H-pyrazol-1-yl)-2-methyl-N-(2-(prop-1-yn-1-yl)-4-(trifluoromethyl)phenyl) propanamide] is < 100 nM; for `CC(C)(C(=O)Nc1ccc(C#N)c2ccccc12)n1cc(C#CC2(F)CN(c3ccc4c(c3)C(=O)N(C3CCC(=O)NC3=O)C4=O)C2)cn1` (stereo not shown) [Compound 68, N-(4-cyanonaphthalen-1-yl)-2-(4-(2-(1-(2-(2,6-dioxopiperidin-3-yl)-1,3-dioxo-2,3-dihydro-1H-isoindol-5-yl)-3-fluoroazetidin-3-yl)ethynyl)-1H-pyrazol-1-yl)-2-methylpropanamide] it is < 50 nM.

The test is the same for the next values; noted with them: Homo sapiens, 168 h, 22RV1 cells, 7 days incubation, cells without a unit of their own (μM), read-out: IC50 values for inhibition of 22RVI cells.
With `CC(C)(C(=O)Nc1ccc(C#N)cc1C(F)(F)F)n1cc(C#CC2CN(c3ccc4c(c3)C(=O)N(C3CCC(=O)NC3=O)C4=O)C2)cn1` (stereo not shown) [Compound 44, N-(4-cyano-2-(trifluoromethyl)phenyl)-2-(4-((1-(2-(2,6-dioxopiperidin-3-yl)-1,3-dioxoisoindolin-5-yl)azetidin-3-yl)ethynyl)-1H-pyrazol-1-yl)-2-methylpropanamide], the half-inhibitory concentration (IC50) was < 1000 nM.
As for `Cc1cc(NC(=O)C(C)(C)n2cc(C#CC3CN(c4ccc5c(c4)C(=O)N(C4CCC(=O)NC4=O)C5=O)C3)cn2)ccc1Cl` (stereo not shown) [Compound 16, N-(4-chloro-3-methylphenyl)-2-(4-((1-(2-(2,6-dioxopiperidin-3-yl)-1,3-dioxoisoindolin-5-yl)azetidin-3-yl)ethynyl)-1H-pyrazol-1-yl)-2-methylpropanamide], the IC50 is < 1000 nM.
The same measure, in the same setting: the figure for `CNC(=O)c1cc(C(F)(F)F)ccc1NC(=O)C(C)(C)n1cc(C#CC2CN(c3ccc4c(c3)C(=O)N(C3CCC(=O)NC3=O)C4=O)C2)cn1` (stereo not shown) [Compound 52, 2-(2-(4-((1-(2-(2,6-dioxopiperidin-3-yl)-1,3-dioxoisoindolin-5-yl)azetidin-3-yl)ethynyl)-1H-pyrazol-1-yl)-2-methylpropanamido)-N-methyl-5-(trifluoromethyl)benzamide] is < 1000 nM.
